Patent publication US7666906B2, “β-Benzyloxyaspartate derivatives with amino group on benzene ring” (Suntory Holdings Limited, priority 2001, dated 2010)

Legend:
[1] = target: T1, human EAAT2 (Homo sapiens, UniProt P43004); experiment: inhibition of [14C]glutamate uptake by human EAAT2 expressed on MDCK or COS-1 cells; assay type: cell-based; conditions: 1 μM L-[14C]glutamate, 12 minutes
T1 construct: expressed in transfected cells
From the text: (§1) Well-known methods can be used to determine inhibitory activity of the compounds of the invention on glutamate transporters. For example, the compounds of the invention have been confirmed to inhibit uptake of ^14C-labeled glutamate into cells by human EAAT2 and EAAT3 stably expressed on MDCK (Madin-Darby Canine Kidney) cells or transiently expressed on COS-1 cells.
(§2) A known method (Shimamoto, K. et al., Mol. Pharmacol. 53, 195-201, 1998; Bioorg. Med. Chem. Lett. 10, 2407-2410, 2000) was used to measure the inhibitory effect on uptake of [^14C]glutamate by human EAAT2 and EAAT3 stably expressed on MDCK (Madin-Darby Canine Kidney) cells or transiently expressed on COS-1 cells. The glutamate uptake activity was measured by adding 1 μM of L-[^14C]glutamate and a prescribed concentration of sample, incubating for 12 minutes and then lysating the cells, and using a liquid scintillator to determine the radioactivity uptake. The uptake was expressed as a percentage, with 100% being the uptake with no compound (buffer alone) and 0% being the uptake with a sodium-free solution.

[2] = target: T2, human EAAT3 (Homo sapiens, UniProt P43005); experiment: inhibition of [14C]glutamate uptake by human EAAT3 expressed on MDCK or COS-1 cells; assay type: cell-based; conditions: 1 μM L-[14C]glutamate, 12 minutes
T2 construct: expressed in transfected cells
T2 sequence (P43005 1-524): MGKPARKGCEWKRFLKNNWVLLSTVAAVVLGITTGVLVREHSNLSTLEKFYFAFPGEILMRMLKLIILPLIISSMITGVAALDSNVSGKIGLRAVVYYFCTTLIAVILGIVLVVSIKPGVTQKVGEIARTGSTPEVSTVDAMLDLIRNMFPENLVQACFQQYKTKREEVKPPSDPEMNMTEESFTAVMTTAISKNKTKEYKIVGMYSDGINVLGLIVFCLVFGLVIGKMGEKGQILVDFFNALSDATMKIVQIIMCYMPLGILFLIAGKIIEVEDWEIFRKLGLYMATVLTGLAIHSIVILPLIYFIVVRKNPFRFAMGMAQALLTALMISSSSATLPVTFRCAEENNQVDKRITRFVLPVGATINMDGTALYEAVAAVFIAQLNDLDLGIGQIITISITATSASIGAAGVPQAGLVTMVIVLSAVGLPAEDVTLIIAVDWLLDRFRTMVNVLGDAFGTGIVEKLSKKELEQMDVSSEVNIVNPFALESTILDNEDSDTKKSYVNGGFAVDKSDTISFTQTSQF
From the text: as §1, §2

[3] = COS-1 cells (transiently expressed), marked *

T1 sequence (P43004 whole entry): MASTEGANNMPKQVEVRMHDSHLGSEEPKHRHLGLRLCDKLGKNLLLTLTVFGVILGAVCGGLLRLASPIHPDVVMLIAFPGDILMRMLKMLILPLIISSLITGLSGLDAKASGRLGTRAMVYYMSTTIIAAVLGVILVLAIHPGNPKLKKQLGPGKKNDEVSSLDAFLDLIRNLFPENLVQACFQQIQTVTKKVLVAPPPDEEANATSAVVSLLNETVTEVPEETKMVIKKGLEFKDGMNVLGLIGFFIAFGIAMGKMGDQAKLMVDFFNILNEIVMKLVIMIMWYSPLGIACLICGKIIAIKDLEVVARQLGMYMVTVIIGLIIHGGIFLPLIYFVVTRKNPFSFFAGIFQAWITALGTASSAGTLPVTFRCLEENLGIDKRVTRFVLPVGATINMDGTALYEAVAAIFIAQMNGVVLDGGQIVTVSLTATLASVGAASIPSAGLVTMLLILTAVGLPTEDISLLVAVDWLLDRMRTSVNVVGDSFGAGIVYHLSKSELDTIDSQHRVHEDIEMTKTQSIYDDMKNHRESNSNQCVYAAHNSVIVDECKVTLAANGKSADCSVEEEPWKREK

Row | SMILES | IC50 ([1]; stably expressed on MDCK cells) [µM] | IC50 ([2]; stably expressed on MDCK cells) [µM] | IC50 [1, 3] [µM] | IC50 [2, 3] [µM]
1 | N[C@H](C(=O)O)[C@H](OCc1cccc(NC(=O)Cc2ccccc2)c1)C(=O)O [PhAcA-TBOA, (2S,3S)-3-[3-(N-phenylacetylamino)benzyloxy]aspartic acid] | 0.143 ± 0.0079 | 0.529 ± 0.032 | – | –
2 | N[C@H](C(=O)O)[C@H](OCc1cccc(NC(=O)CCCC[C@@H]2SC[C@@H]3NC(=O)N[C@@H]32)c1)C(=O)O [BioA-TBOA, (2S,3S)-3-[3-(N-biotinylamino)benzyloxy]aspartic acid] | 38 ± 13 | 25 ± 2.4 | – | –
3 | N[C@H](C(=O)O)[C@H](OCc1cccc(NC(=O)CCNC(=O)CCCC[C@@H]2SC[C@@H]3NC(=O)N[C@@H]32)c1)C(=O)O [Bio-AA-TBOA, (2S,3S)-3-[3-(3-N-biotinylaminopropionylamino)benzyloxy]aspartic acid] | 6.3 ± 0.39 | 10 ± 0.93 | – | –
4 | N[C@H](C(=O)O)[C@H](OCc1cccc(NC(=O)c2ccc(OCCCCCNC(=O)CCCC[C@@H]3SC[C@@H]4NC(=O)N[C@@H]43)cc2)c1)C(=O)O [BioA-PenO-BzA-TBOA, (2S,3S)-3-[3-(N-(4-(5-biotynylaminopentyloxy)benzoyl)amino)benzyloxy]aspartic acid] | 2.2 ± 0.52 | 1.1 ± 0.06 | – | –
5 | COc1ccc(C(=O)Nc2cccc(CO[C@H](C(=O)O)[C@H](N)C(=O)O)c2)cc1 [p-MeO-BzA-TBOA, (2S,3S)-3-[3-[N-(4-methoxybenzoyl)amino]benzyloxy]aspartic acid] | 0.012 ± 0.0005 | 0.266 ± 0.02 | – | –
6 | Nc1cccc(CO[C@H](C(=O)O)[C@H](N)C(=O)O)c1 [A-TBOA, (2S,3S)-3-(3-aminobenzyloxy)aspartic acid] | 2.1 ± 0.1 | 7.9 ± 0.76 | – | –
7 | CCCCCCOc1ccc(C(=O)Nc2cccc(CO[C@H](C(=O)O)[C@H](N)C(=O)O)c2)cc1 [OHex-BzA-TBOA, (2S,3S)-3-[3-[N-(4-n-hexyloxybenzoyl)amino]benzyloxy]aspartic acid] | 0.0012 ± 4e-05 | 0.018 ± 0.0016 | – | –
8 | NCCC(=O)Nc1cccc(CO[C@H](C(=O)O)[C@H](N)C(=O)O)c1 [AA-TBOA, (2S,3S)-3-[3-(3-aminopropionylamino)benzyloxy]aspartic acid] | 13 ± 1.1 | 13 ± 1.1 | – | –
9 | N[C@H](C(=O)O)[C@H](OCc1cccc(NC(=O)c2ccc(F)cc2)c1)C(=O)O [F-BzA-TBOA, (2S,3S)-3-[3-[N-(4-fluorobenzoyl)amino]benzyloxy]aspartic acid] | 0.022 ± 0.0027 | 0.473 ± 0.013 | – | –
10 | CC(C)(C)c1ccc(C(=O)Nc2cccc(CO[C@H](C(=O)O)[C@H](N)C(=O)O)c2)cc1 [TBu-BzA-TBOA, (2S,3S)-3-[3-[N-(4-tert-butylbenzoyl)amino]benzyloxy]aspartic acid] | 0.025 ± 0.0005 | 0.182 ± 0.011 | – | –
11 | N[C@H](C(=O)O)[C@H](OCc1cccc(NC(=O)c2ccc(C(F)(F)F)cc2)c1)C(=O)O [CF3-BzA-TBOA, (2S,3S)-3-[3-[N-(4-trifluoromethylbenzoyl)amino]benzyloxy]aspartic acid] | 0.0019 ± 0.0001 | 0.028 ± 0.0018 | – | –
12 | CCC(=O)NCCC(=O)Nc1cccc(COC(C(=O)O)C(N)C(=O)O)c1 [Pr-AA-TBOA, (2S,3S)-3-[3-(3-N-propionylaminopropionylamino)benzyloxy]aspartic acid] | 6 ± 1.4 | 7.6 ± 0.45 | – | –
13 | N[C@H](C(=O)O)[C@H](OCc1cccc(NC(=O)c2ccc(-c3ccccc3)cc2)c1)C(=O)O [Ph-BzA-TBOA, (2S,3S)-3-[3-[N-(4-phenylbenzoyl)amino]benzyloxy]aspartic acid] | 0.021 ± 0.0022 | 0.034 ± 0.019 | – | –
14 | CCC(=O)Nc1ccc(CO[C@H](C(=O)O)[C@H](N)C(=O)O)cc1 [p-Pr-A-TBOA, (2S,3S)-3-[4-(N-propionylamino)benzyloxy]aspartic acid] | – | – | 111 ± 25 | 295 ± 118
15 | CCC(=O)Nc1cccc(CO[C@H](C(=O)O)[C@H](N)C(=O)O)c1 [Pr-A-TBOA, (2S,3S)-3-[3-(N-propionylamino)benzyloxy]aspartic acid] | 2 ± 0.21 | 7.9 ± 0.46 | – | –
16 | N[C@H](C(=O)O)[C@H](OCc1ccccc1)C(=O)O [TBOA, L-threo-β-benzyloxyaspartate, reference compound] | 1.4 ± 0.12 | 1.3 ± 0.11 | – | –
17 | COc1cccc(C(=O)Nc2cccc(CO[C@H](C(=O)O)[C@H](N)C(=O)O)c2)c1 [m-MeO-BzA-TBOA, (2S,3S)-3-[3-[N-(3-methoxybenzoyl)amino]benzyloxy]aspartic acid] | 0.037 ± 0.0025 | 0.356 ± 0.012 | – | –
18 | COc1ccc(C(=O)Nc2cccc(CO[C@H](C(=O)O)[C@H](N)C(=O)O)c2)cc1OC [DiMeO-BzA-TBOA, (2S,3S)-3-[3-[N-(3,4-dimethoxybenzoyl)amino]benzyloxy]aspartic acid] | 0.049 ± 0.0038 | 0.917 ± 0.03 | – | –
19 | N[C@H](C(=O)O)[C@H](OCc1cccc(NC(=O)c2ccc(OC(F)(F)F)cc2)c1)C(=O)O [OCF3-BzA-TBOA, (2S,3S)-3-[3-[N-(4-trifluoromethoxybenzoyl)amino]benzyloxy]aspartic acid] | 0.007 ± 0.0005 | 0.128 ± 0.012 | – | –
20 | N#Cc1ccc(C(=O)Nc2cccc(CO[C@H](C(=O)O)[C@H](N)C(=O)O)c2)cc1 [CN-BzA-TBOA, (2S,3S)-3-[3-[N-(4-cyanobenzoyl)amino]benzyloxy]aspartic acid] | 0.036 ± 0.0029 | 1.4 ± 0.099 | – | –
21 | N[C@H](C(=O)O)[C@H](OCc1cccc(NC(=O)C2CCCCC2)c1)C(=O)O [CHexcA-TBOA, (2S,3S)-3-[3-(N-cyclohexylcarbonylamino)benzyloxy]aspartic acid] | 0.244 ± 0.012 | 0.288 ± 0.008 | – | –
22 | COc1ccccc1C(=O)Nc1cccc(CO[C@H](C(=O)O)[C@H](N)C(=O)O)c1 [o-MeO-BzA-TBOA, (2S,3S)-3-[3-[N-(2-methoxybenzoyl)amino]benzyloxy]aspartic acid] | 0.145 ± 0.0022 | 1 ± 0.042 | – | –
23 | CC(C)(C)C(=O)Nc1cccc(CO[C@H](C(=O)O)[C@H](N)C(=O)O)c1 [Piv-A-TBOA, (2S,3S)-3-[3-(N-pivaroylamino)benzyloxy]aspartic acid] | 1 ± 0.13 | 4.1 ± 0.67 | – | –
24 | N[C@H](C(=O)O)[C@H](OCc1cccc(NC(=O)c2ccc([N+](=O)[O-])cc2)c1)C(=O)O [NO2-BzA-TBOA, (2S,3S)-3-[3-[N-(4-nitrobenzoyl)amino]benzyloxy]aspartic acid] | 0.014 ± 0.0014 | 0.278 ± 0.032 | – | –
25 | NCCCCCOc1ccc(C(=O)Nc2cccc(CO[C@H](C(=O)O)[C@H](N)C(=O)O)c2)cc1 [A-PenO-BzA-TBOA, (2S,3S)-3-[3-(N-(4-(5-aminopentyloxy)benzoyl)amino)benzyloxy]aspartic acid] | 7.3 ± 1.1 | 2.2 ± 0.2 | – | –
26 | N[C@H](C(=O)O)[C@H](OCc1cccc(NC(=O)c2ccccc2)c1)C(=O)O [BzA-TBOA, (2S,3S)-3-[3-(N-benzoylamino)benzyloxy]aspartic acid] | 0.055 ± 0.005 | 0.726 ± 0.098 | – | –
